# Laboratory results from US20260373160A1, “COMPOSITION FOR IMPROVEMENT, PREVENTION OR TREATMENT OF STRESS AND DEPRESSION RELATED DISEASES COMPRISING TALAMPANEL” (POSTECH RESEARCH AND BUSINESS DEVELOPMENT FOUNDATION, priority 2022, published 2026).
# Key:
# Assay type in all cases: in vivo, C57BL6/J mice
# [1] = Body weight change in mouse model of chronic restraint stress-based depression; conditions: for body weight change compared to the control group: 15 days, with 4 h daily restraint stress, FIG. 3
# Method: (§1) Experimental animals, 8-9 week old male C57BL6/J mice, were provided by Hyochang Science in Daegu, Korea. Mice were provided with food and water ad libitum under diurnal lighting conditions (12 hours light, 12 hours dark). All animal experimental procedures were approved by the Institutional Animal Care and Use Committee (IACUC) of Pohang University of Science and Technology, and all experiments were conducted in compliance with the approved guidelines.
# (§2) To induce mice of chronic restraint stress-based depression, 8-9 week old male C57BL6/J mice were housed in single cages one day before the experiment.
# (§3) Thirty minutes after drug administration, the mice were induced to enter a 50 ml conical tube with a hole to allow breathing, and paper towels were placed to eliminate any empty space, ensuring the mice remained in restraint for 4 hours.
# [2] = tested on: mouse model of chronic stress-induced depression; experiment: Forced swim test (FST) in mouse model of chronic stress-induced depression; conditions: i.p. daily, last 4 of 6 minutes scored
# Method: as §1
# To induce mice of chronic restraint stress-based depression, 8-9 week old male C57BL6/J mice were housed in single cages one day before the experiment. […]
# To perform the forced swim test in a mouse model of chronic stress-induced depression, a cylindrical tank, with a diameter of 20 cm and a height of 30 cm, was filled with water at a temperature range of 25 °C to 28 °C until the water level reached 15 cm. Then, each mouse was carefully placed in water, and the mouse's activity was recorded on video for 6 minutes. […]
# Of the total 6 minutes of recording, the first 2 minutes were excluded as habituation, and the immobile time of each mouse was measured for the next 4 minutes. Mouse movement was defined as any activity other than the minimal movements required to maintain body balance and to ensure the head remained above water, and the immobile time was measured. […]
# [3] = tested on: mouse model of chronic stress-induced depression; experiment: Tail suspension test (TST) in mouse model of chronic stress-induced depression; conditions: 28 days of restraint stress, i.p. daily; 6 minutes scored; FIG. 6
# Method: as §1, §2
# Thirty minutes after drug administration, the mice were induced to enter a 50 ml conical tube with a hole to allow breathing, and paper towels were placed to eliminate any empty space, ensuring the mice remained in restraint for 4 hours. […]
# The activity of each mouse was recorded on video for 6 minutes. Up to four mice were tested at a time, and the immobile time of each mouse was measured for a total of 6 minutes. The movement status of the mouse was defined based on limb movement, with a state of immobility determined when all limbs remained motionless, and the immobile time was measured. […]
# [4] = tested on: mouse model of chronic stress-induced depression; experiment: Sucrose preference test (SPT) in mouse model of chronic stress-induced depression; conditions: 28 days of restraint stress, i.p. daily; 2% sugar solution vs water, 3 hours; FIG. 7
# Method: as §1, §2, §3
# To perform a sugar preference test in a mouse model of chronic stress-induced depression, the mice were deprived of food and water for 18 hours on Day 1 of the experiment. On Days 2 and 3, the mice were provided with food, along with a 2% sugar solution and water simultaneously to allow exposure to the 2% sugar. […] To measure the intake of the mice, the weights of the solution and bottle were recorded before and after the 3-hour test.
# Sucrose preference was calculated by the following expression: (Sugar solution intake/Total liquid intake)×100. […]
structure (smiles),measurement,setting,value
CC(=O)N1N=C(c2ccc(N)cc2)c2cc3c(cc2C[C@H]1C)OCO3 [talampanel],body weight change compared to the control group,[1]; 1 mg/kg i.p. daily,increase in body weight compared to the control group from Day 8 of administration
same,body weight change compared to the control group,[1]; 10 mg/kg i.p. daily,increase in body weight compared to the control group from Day 8 of administration
same,effect on weight loss due to stress and depression,"[1]; i.p. daily, restraint stress, conclusion from body weight measurement",preventing weight loss caused by sustained stress
same,immobile time in forced swim test compared to the control group,"[2]; 15 days of restraint stress, FIG. 4",significant reduction in immobile time
same,immobile time in forced swim test compared to the control group,"[2]; 28 days of restraint stress, FIG. 5",significant reduction in immobile time
same,immobile time in tail suspension test compared to the control group,[3],significant reduction in immobile time
same,sucrose preference (sugar solution intake/total liquid intake) compared to the control group,[4],increased preference for the sugar solution compared to the control group
